From US6503943B1, “Platinum complex, its preparation and therapeutic application” (priority 1998, dated 2003)

How the values were obtained:
leucaemia L1210 = experiment: Antitumor effect at animals with leucaemia L1210, continual regimen (Example 7); format: in vivo, mice DBA2; details: for Survival (in % of control) / Survival time, Geom. mean: 1th-9th day
[1] = test system: mammal adenocarcinoma MC2111; experiment: Antitumor effect at animals with solid form of mammal adenocarcinoma MC2111 (Example 9); format: in vivo, mice DBA1; details: 5th-13 day; for Tumor mass (%) of control / Tumor mass, Arithm. mean: tumor size 14th day, mass from regression
[2] = test system: ascitic form of Ehrlich tumor (ATE); experiment: Antitumor effect at animals with ascitic form of Ehrlich tumor (ATE) (Example 11);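 for all read-outs here: half of each dose group killed on day 10, tumor mass taken as animal mass lost on ascites aspiration, ascitocrit by microhematocrit centrifuge, rest followed daily for survival versus reference group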; details: for Survival (in % of control) / Survival time, Geom. mean / Total ascitocrit (%) of control / Total ascitocrit (mass of cell fraction of a tumor), Arithm. mean / Tumor mass (%) of control / Tumor mass, Arithm. mean: 1th-9th day; for Total ascitocrit (%) of control / Total ascitocrit (mass of cell fraction of a tumor), Arithm. mean / Tumor mass (%) of control / Tumor mass, Arithm. mean: dissection 10th day
Protocol: After termination of application, one half of animals in each dosage group was destroyed at 10th day after inoculation in ether narcosis, the ascits were sucked out after laparotomy and the mass of a tumor at each of the animals was determined from the difference of mass before and after sucking out the ascit. Ascitocrit in ascitic liquor of single animals was determined on microhematocrit centrifuge in heparinized capillary tubes of 75 mm length. The value of “total ascitocrit”corresponding to a mass of cells in ascitic liquor has been determined from percentage of ascitocrit and mass of the tumor. Remaining animals were left for monitoring the survival time. In these animals, the survival time was monitored on daily basis. The dependence of the survival time value on the applied dose was evaluated in comparison with the reference group.
The single estimated time points as biological responses were evaluated by a test of equivalence of two mean values (Student's t-test). Geometric mean was calculated from single values of survival time, arithmetic means were calculated from single values of tumor mass and total ascitocrit. Difference between mean values was evaluated by a test of equivalence of two mean values (Student's t-test) under presumption of normal probability distribution of mass values as well as of total ascitocrit values and of logarithmic/normal distribution of temporal values, all under presumption of possible unknown disseminations. Those diferences in mean values, whose values of a test criterium exceeded the critical value at the 5% and 1% significance level were evaluated as statistically significant and highly statistically significant, respectively.
The optimum dosage has been calculated from values of survival time according to the proportional risk model of Cox (Carter et al., 1982). Parameters of Weinbull distribution and logarithmic transformation of introductory data were used for estimation of a basic and modified survival function from experimental data.

SMILES: CC(=O)[O][Pt]([NH2])([Cl])([Cl])([NH]C12CC3CC(C)(CC(C)(C3)C1)C2)[O]C(C)=O [LA-15, af-bis(Acetato)-b-(1amino-3.5-dimethyladamantane)-c-ammin-de-dichloroplatinum (IV) Complex]
- Survival (in % of control) (leucaemia L1210; 3 mg/kg/day p.o. 9x): 180%
- Survival time, Geom. mean (leucaemia L1210; 3 mg/kg/day p.o. 9x): 40.5 days
- Survival (in % of control) (leucaemia L1210; 6 mg/kg/day p.o. 9x): 217%
- Survival time, Geom. mean (leucaemia L1210; 6 mg/kg/day p.o. 9x): 48.8 days
- Survival (in % of control) (leucaemia L1210; 12 mg/kg/day p.o. 9x): 130%
- Survival time, Geom. mean (leucaemia L1210; 12 mg/kg/day p.o. 9x): 29.3 days
- Evaluation of antitumor effect (survival time versus control), in words (leucaemia L1210; in the dosages used, p.o.×9): antitumor effective
- Increase of survival time value in comparison with the control group (leucaemia L1210; in the dosages used, p.o.×9): 130%
- Survival (in % of control) ([1]; 3 mg/kg/day p.o. 9x): 117%
- Survival time, Geom. mean ([1]; 3 mg/kg/day p.o. 9x): 25.4 days
- Tumor mass (%) of control ([1]; 3 mg/kg/day p.o. 9x): 90%
- Tumor mass, Arithm. mean ([1]; 3 mg/kg/day p.o. 9x): 4.19 g
- Survival (in % of control) ([1]; 6 mg/kg/day p.o. 9x): 127%
- Survival time, Geom. mean ([1]; 6 mg/kg/day p.o. 9x): 27.6 days
- Tumor mass (%) of control ([1]; 6 mg/kg/day p.o. 9x): 85%
- Tumor mass, Arithm. mean ([1]; 6 mg/kg/day p.o. 9x): 3.95 g
- Survival (in % of control) ([1]; 12 mg/kg/day p.o. 9x): 118%
- Survival time, Geom. mean ([1]; 12 mg/kg/day p.o. 9x): 25.5 days
- Tumor mass (%) of control ([1]; 12 mg/kg/day p.o. 9x): 80%
- Tumor mass, Arithm. mean ([1]; 12 mg/kg/day p.o. 9x): 3.74 g
- Survival (in % of control) ([2]; 3 mg/kg/day p.o. 9x): 99%
- Survival time, Geom. mean ([2]; 3 mg/kg/day p.o. 9x): 8.8 days
- Total ascitocrit (%) of control ([2]; 3 mg/kg/day p.o. 9x): 123%
- Total ascitocrit (mass of cell fraction of a tumor), Arithm. mean ([2]; 3 mg/kg/day p.o. 9x): 0.84 g
- Tumor mass (%) of control ([2]; 3 mg/kg/day p.o. 9x): 89%
- Tumor mass, Arithm. mean ([2]; 3 mg/kg/day p.o. 9x): 3.51 g
- Survival (in % of control) ([2]; 6 mg/kg/day p.o. 9x): 108%
- Survival time, Geom. mean ([2]; 6 mg/kg/day p.o. 9x): 9.6 days
- Total ascitocrit (%) of control ([2]; 6 mg/kg/day p.o. 9x): 59%
- Total ascitocrit (mass of cell fraction of a tumor), Arithm. mean ([2]; 6 mg/kg/day p.o. 9x): 0.40 g
- Tumor mass (%) of control ([2]; 6 mg/kg/day p.o. 9x): 53%
- Tumor mass, Arithm. mean ([2]; 6 mg/kg/day p.o. 9x): 2.08 g
- Mean value of the mass of cell fraction of the tumor (total ascitocrit) versus control, in words ([2]; 6 mg/kg/day p.o.×9): statistically significant lower
- Survival (in % of control) ([2]; 12 mg/kg/day p.o. 9x): 97%
- Survival time, Geom. mean ([2]; 12 mg/kg/day p.o. 9x): 8.6 days
- Total ascitocrit (%) of control ([2]; 12 mg/kg/day p.o. 9x): 120%
- Total ascitocrit (mass of cell fraction of a tumor), Arithm. mean ([2]; 12 mg/kg/day p.o. 9x): 0.82 g
- Tumor mass (%) of control ([2]; 12 mg/kg/day p.o. 9x): 96%
- Tumor mass, Arithm. mean ([2]; 12 mg/kg/day p.o. 9x): 3.77 g
- Evaluation of antitumor effect (survival time versus control), in words ([2]; p.o.×9, Platidiam 8 and 4 mg/kg s.c.×1, Tab. 8.1): didnot increase the survival time statistically significant
